Literature values as cited in paper PMC4955970, “Stable, synthetic analogs of diadenosine tetraphosphate inhibit rat and human P2X3 receptors and inflammatory pain” (Molecular Pain, 2016).

Test system: P2X3R
Parameters: method as in PMID 11821019
Details: EC50 and IC50 values taken from literature ref 41; cited from earlier work

Row | SMILES | EC50/IC50 index
1 | Nc1ncnc2c1ncn2[C@@H]1O[C@H](COP(=O)(O)OP(=O)(O)OP(=O)(O)OP(=O)(O)OC[C@H]2O[C@@H](n3cnc4c(N)ncnc43)[C@H](O)[C@@H]2O)[C@@H](O)[C@H]1O [Ap4A, P^1,P^4-diadenosine tetraphosphate] | 11.48
2 | Nc1ncnc2c1ncn2[C@@H]1O[C@H](COP(=O)(O)OP(=O)(O)OP(=O)(O)O)[C@@H](O)[C@H]1O [ATP] | 15.13
